In the first test the target is T1, human Nav1.7 (Homo sapiens, UniProt Q15858).
T1 construct: expressed in transfected cells; host or cells: HEK293
T1 sequence (Q15858 whole entry): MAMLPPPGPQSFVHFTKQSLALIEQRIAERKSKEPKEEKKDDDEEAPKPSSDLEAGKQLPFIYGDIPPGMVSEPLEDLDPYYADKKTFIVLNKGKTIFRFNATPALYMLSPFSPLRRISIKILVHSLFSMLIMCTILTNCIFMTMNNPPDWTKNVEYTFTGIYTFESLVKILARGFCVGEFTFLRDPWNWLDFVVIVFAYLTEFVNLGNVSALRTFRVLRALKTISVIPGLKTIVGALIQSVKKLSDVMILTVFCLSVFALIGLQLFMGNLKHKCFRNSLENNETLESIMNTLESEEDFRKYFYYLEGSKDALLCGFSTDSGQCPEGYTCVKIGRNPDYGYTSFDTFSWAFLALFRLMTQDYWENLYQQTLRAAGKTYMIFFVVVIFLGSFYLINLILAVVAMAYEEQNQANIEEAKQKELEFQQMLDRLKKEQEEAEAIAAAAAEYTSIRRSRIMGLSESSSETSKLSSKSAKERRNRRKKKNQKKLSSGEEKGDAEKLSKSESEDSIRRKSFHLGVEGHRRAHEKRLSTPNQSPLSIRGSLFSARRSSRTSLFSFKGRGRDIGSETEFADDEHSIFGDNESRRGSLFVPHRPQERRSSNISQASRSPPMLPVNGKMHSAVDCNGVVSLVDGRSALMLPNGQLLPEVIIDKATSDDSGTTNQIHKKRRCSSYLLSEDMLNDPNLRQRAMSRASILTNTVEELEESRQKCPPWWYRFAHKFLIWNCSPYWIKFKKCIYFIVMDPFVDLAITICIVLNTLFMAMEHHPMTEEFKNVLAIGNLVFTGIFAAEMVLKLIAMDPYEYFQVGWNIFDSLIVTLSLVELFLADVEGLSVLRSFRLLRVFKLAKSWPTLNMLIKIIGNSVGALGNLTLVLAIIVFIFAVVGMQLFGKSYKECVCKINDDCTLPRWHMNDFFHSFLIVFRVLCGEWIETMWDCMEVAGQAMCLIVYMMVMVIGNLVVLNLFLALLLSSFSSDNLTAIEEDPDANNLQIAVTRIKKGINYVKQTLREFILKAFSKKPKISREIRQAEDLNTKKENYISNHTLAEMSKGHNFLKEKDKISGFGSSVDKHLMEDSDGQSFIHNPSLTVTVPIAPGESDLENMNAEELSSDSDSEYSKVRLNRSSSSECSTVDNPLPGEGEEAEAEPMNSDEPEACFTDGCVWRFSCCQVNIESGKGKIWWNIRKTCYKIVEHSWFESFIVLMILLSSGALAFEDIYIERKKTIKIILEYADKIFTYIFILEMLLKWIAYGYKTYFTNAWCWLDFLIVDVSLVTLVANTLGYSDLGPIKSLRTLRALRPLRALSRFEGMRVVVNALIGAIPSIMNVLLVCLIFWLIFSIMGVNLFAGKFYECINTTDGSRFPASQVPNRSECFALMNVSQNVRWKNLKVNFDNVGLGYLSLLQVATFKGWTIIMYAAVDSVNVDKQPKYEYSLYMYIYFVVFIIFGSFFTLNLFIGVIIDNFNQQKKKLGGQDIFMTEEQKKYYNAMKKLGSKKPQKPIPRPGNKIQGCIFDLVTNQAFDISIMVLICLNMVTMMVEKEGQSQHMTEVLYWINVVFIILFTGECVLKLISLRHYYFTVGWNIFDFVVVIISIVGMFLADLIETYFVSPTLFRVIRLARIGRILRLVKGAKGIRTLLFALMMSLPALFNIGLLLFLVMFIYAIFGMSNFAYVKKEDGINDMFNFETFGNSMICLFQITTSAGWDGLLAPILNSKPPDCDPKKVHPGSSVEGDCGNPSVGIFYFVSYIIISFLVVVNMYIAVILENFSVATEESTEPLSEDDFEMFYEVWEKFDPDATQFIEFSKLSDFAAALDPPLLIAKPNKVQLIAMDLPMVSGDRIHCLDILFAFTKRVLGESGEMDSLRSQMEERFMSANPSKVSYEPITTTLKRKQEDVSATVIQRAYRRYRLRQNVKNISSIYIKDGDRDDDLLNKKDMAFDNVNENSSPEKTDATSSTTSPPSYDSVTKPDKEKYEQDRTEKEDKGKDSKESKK
As to the kind of experiment: Nav 1.7 In Vitro PatchXpress (PX) Assay. It is filed as cell-based. Particulars: HEK 293 cells stably transfected with human Nav1.7; PatchXpress whole cell voltage clamp; partially inactivated state (holding potential yielding 20 to 50% inactivation); read-out: hNav1.7 PX IC50. How it is done:
Nav 1.7 In Vitro PatchXpress (PX) Assay
HEK 293 cells stably transfected with human Nav1.7 were recorded in whole cell voltage clamp mode with the PatchXpress automated electrophysiology system (Molecular Devices, LLC, Sunnyvale, Calif.). Compound effects were measured on a partially inactivated state of the sodium channel. Cells were clamped to a holding potential yielding 20 to 50% inactivation. To elicit sodium current, channels were activated by pulsing to −10 mV for 20 msec. This voltage protocol was repeated at a rate of 0.1 Hz throughout the experiment. A single concentration of test compound was applied to cells for a duration of 3 minutes. Peak sodium current was measured at the end of the compound addition period to determine percent inhibition. Three to five cells were tested per concentration, and IC50 curves were fitted to percent inhibition as a function of concentration.
Consider `COc1ccc(-c2ccc(Cl)c(C)c2)cc1-n1c2c(ccc1=O)CN(S(=O)(=O)Nc1cccnn1)CC2` [Example 56-P, P-1-(4′-chloro-4-methoxy-3′-methyl-3-biphenylyl)-2-oxo-N-3-pyridazinyl-1,5,7,8-tetrahydro-1,6-naphthyridine-6(2H)-sulfonamide], for which the IC50 stood at 493 nM.
On the same count and under the same terms, the same measure for `COc1ccccc1-n1c2c(ccc1=O)CN(S(=O)(=O)Nc1ccon1)CC2` (racemic) [Example 27, (Rac)-N-3-isoxazolyl-1-(2-methoxyphenyl)-2-oxo-1,5,7,8-tetrahydro-1,6-naphthyridine-6(2H)-sulfonamide]: > 1000 nM.
Still for that read-out and setting: the same measure for `COc1cc(-c2cc(F)cc(F)c2)c(F)cc1-n1c2c(ccc1=O)CN(S(=O)(=O)Nc1ccon1)CC2` (racemic) [Example 25-(Rac), (Rac)-N-3-isoxazolyl-2-oxo-1-(2,3′,5′-trifluoro-5-methoxy-4-biphenylyl)-1,5,7,8-tetrahydro-1,6-naphthyridine-6(2H)-sulfonamide]: 209 nM.

A further test concerns the target T1, human Nav1.7. As to the kind of experiment: Nav 1.7 IWB In Vitro Assay (IonWorks Barracuda). The class given is cell-based. The note with it: HEK293 cells stably transfected with human Nav 1.7; IonWorks Barracuda population patch-clamp; cells clamped to −20 mV for 4 minutes with compound; 26th pulse; read-out: hNav1.7 IWB IC50. As for the experimental part: Nav 1.7 IWB In Vitro Assay
HEK293 cells stably transfected with human Nav 1.7 were recorded in population patch-clamp mode with the IonWorks© Barracuda (IWB) automated electrophysiology system (Molecular Devices, LLC, Sunnyvale, Calif.). From a holding potential of −110 mV, sodium currents were elicited by a train of 26 depolarizations of 150 ms duration to −20 mV at a frequency of 5 Hz. Cells were then clamped to −20 mV for a period of 4 minutes in the presence of a single concentration of test compound. Following this compound incubation period, cells were clamped to −110 mV for three seconds to recover unbound channels and put through the same 26 pulse voltage protocol as above. Peak inward current during the 26th pulse to −20 mV in the presence of compound was divided by the peak inward current evoked by the 26th pulse to −20 mV in the absence of compound to determine percent inhibition. Concentration-response curves of percent inhibition as a function of concentration were generated to calculate IC50 values.
On the technique in general: Patch clamp records ionic current or voltage across a cell membrane.
Turning to `COc1cc(Br)c(F)cc1-n1c2c(ccc1=O)CN(S(=O)(=O)Nc1ncccn1)CC2` (racemic) [Preparation 8a, 1-(4-bromo-5-fluoro-2-methoxyphenyl)-2-oxo-N-2-pyrimidinyl-1,5,7,8-tetrahydro-1,6-naphthyridine-6(2H)-sulfonamide], the concentration for half-maximal inhibition (IC50) was 4240 nM.
The same measure, in the same setting: the same measure for `COc1cc(-c2cccc(C(F)(F)F)c2)c(F)cc1-n1c2c(ccc1=O)CN(S(=O)(=O)Nc1ccon1)CC2` (single isomer, unassigned) [Example 16-M, M-1-(2-fluoro-5-methoxy-3′-(trifluoromethyl)-4-biphenylyl)-N-3-isoxazolyl-2-oxo-1,5,7,8-tetrahydro-1,6-naphthyridine-6(2H)-sulfonamide]: 720 nM; for `COc1cc(CCC(F)(F)F)c(Cl)cc1-n1c2c(ccc1=O)CN(S(=O)(=O)Nc1cccnn1)CC2` (single isomer, unassigned) [Example 96-M, M-1-(5-chloro-2-methoxy-4-(3,3,3-trifluoropropyl)phenyl)-2-oxo-N-(pyridazin-3-yl)-1,2,7,8-tetrahydro-1,6-naphthyridine-6(5H)-sulfonamide]: 856 nM.
The same measure, in the same setting: the value for `COc1cc(-c2cc(F)cc(Cl)c2)c(F)cc1-n1c2c(ccc1=O)CN(S(=O)(=O)Nc1ncns1)CC2` (single isomer, unassigned) [Example 5-M, M-1-(3′-chloro-2,5′-difluoro-5-methoxy-4-biphenylyl)-2-oxo-N-1,2,4-thiadiazol-5-yl-1,5,7,8-tetrahydro-1,6-naphthyridine-6(2H)-sulfonamide] was 726 nM; that for `COc1cc(-c2ccc(Cl)c(C)c2)c(F)cc1-n1c2c(ccc1=O)CN(S(=O)(=O)Nc1ccon1)CC2` (single isomer, unassigned) [Example 24-M, M-1-(4′-chloro-2-fluoro-5-methoxy-3′-methyl-4-biphenylyl)-N-3-isoxazolyl-2-oxo-1,5,7,8-tetrahydro-1,6-naphthyridine-6(2H)-sulfonamide] was 462 nM; that for `COc1cc(-c2cc(F)cc(F)c2)c(F)cc1-n1c2c(ccc1=O)CN(S(=O)(=O)Nc1cccc(F)n1)CC2` (single isomer, unassigned) [Example 14-M, M-N-(6-fluoro-2-pyridinyl)-2-oxo-1-(2,3′,5′-trifluoro-5-methoxy-4-biphenylyl)-1,5,7,8-tetrahydro-1,6-naphthyridine-6(2H)-sulfonamide] was 452 nM.
The same measure, in the same setting: the same measure for `COc1cc(-c2cc(F)cc(Cl)c2)c(F)cc1-n1c2c(ccc1=O)CN(S(=O)(=O)Nc1ccnc(C)n1)CC2` (single isomer, unassigned) [Example 6-M, M-1-(3′-chloro-2,5′-difluoro-5-methoxy-4-biphenylyl)-N-(2-methyl-4-pyrimidinyl)-2-oxo-1,5,7,8-tetrahydro-1,6-naphthyridine-6(2H)-sulfonamide]: 8820 nM.
As for `COc1cc(Br)c(F)cc1-n1c2c(ccc1=O)CN(S(=O)(=O)Nc1cccnn1)CC2` (racemic) [Preparation 8b, 1-(4-bromo-5-fluoro-2-methoxyphenyl)-2-oxo-N-3-pyridazinyl-1,5,7,8-tetrahydro-1,6-naphthyridine-6(2H)-sulfonamide], the IC50 came out at 1120 nM.
Still for that read-out and setting: the same measure for `COc1cc(Br)c(Cl)cc1-n1c2c(ccc1=O)CN(S(=O)(=O)Nc1ccon1)CC2` (racemic) [Preparation 8c, 1-(4-bromo-5-chloro-2-methoxyphenyl)-N-3-isoxazolyl-2-oxo-1,5,7,8-tetrahydro-1,6-naphthyridine-6(2H)-sulfonamide]: 2880 nM; for `COc1cc(-c2cc(F)cc(Cl)c2)ccc1-n1c2c(ccc1=O)CN(S(=O)(=O)Nc1cccnn1)CC2` (single isomer, unassigned) [Example 8-M, M-1-(3′-chloro-5′-fluoro-3-methoxy-4-biphenylyl)-2-oxo-N-3-pyridazinyl-1,5,7,8-tetrahydro-1,6-naphthyridine-6(2H)-sulfonamide]: 2950 nM.
Same read-out and setting: the same measure for `COc1cc(Br)c(Cl)cc1-n1c2c(ccc1=O)CN(S(=O)(=O)Nc1ccon1)CC2` (single isomer, unassigned) [Preparation 8c-M, M-1-(4-bromo-5-chloro-2-methoxyphenyl)-N-3-isoxazolyl-2-oxo-1,5,7,8-tetrahydro-1,6-naphthyridine-6(2H)-sulfonamide]: > 25000 nM; for `COc1cc(-c2cc(OC)c(-n3c4c(ccc3=O)CN(S(=O)(=O)Nc3ccon3)CC4)cc2F)ccc1C` (single isomer, unassigned) [Example 58-M, M-1-(2-fluoro-3′,5-dimethoxy-4′-methyl-4-biphenylyl)-N-3-isoxazolyl-2-oxo-1,5,7,8-tetrahydro-1,6-naphthyridine-6(2H)-sulfonamide]: 1480 nM.
Still for that read-out and setting: the same measure for `COc1cc(Br)c(Cl)cc1-n1c2c(ccc1=O)CN(S(=O)(=O)Nc1ccon1)CC2` (single isomer, unassigned) [Preparation 8c-P, P-1-(4-bromo-5-chloro-2-methoxyphenyl)-N-3-isoxazolyl-2-oxo-1,5,7,8-tetrahydro-1,6-naphthyridine-6(2H)-sulfonamide]: 768 nM; for `COc1cc(Br)c(F)cc1-n1c2c(ccc1=O)CN(S(=O)(=O)Nc1ccncn1)CC2` (single isomer, unassigned) [Preparation 8f-P, P-1-(4-bromo-5-fluoro-2-methoxyphenyl)-2-oxo-N-(pyrimidin-4-yl)-1,2,7,8-tetrahydro-1,6-naphthyridine-6(5H)-sulfonamide]: 193 nM.
For the compound `COc1cc(C#CC2CCCC2)c(F)cc1-n1c2c(ccc1=O)CN(S(=O)(=O)Nc1ccon1)CC2` (single isomer, unassigned) [Example 34-M, M-1-(4-(cyclopentylethynyl)-5-fluoro-2-methoxyphenyl)-N-3-isoxazolyl-2-oxo-1,5,7,8-tetrahydro-1,6-naphthyridine-6(2H)-sulfonamide], the 50% inhibitory concentration (IC50) came out at 9720 nM.
The same measure, in the same setting: the value for `COc1cc(-c2ccc(Cl)c(C)c2)c(F)cc1-n1c2c(ccc1=O)CN(S(=O)(=O)Nc1cccnn1)CC2` (single isomer, unassigned) [Example 33-M, M-1-(4′-chloro-2-fluoro-5-methoxy-3′-methyl-4-biphenylyl)-2-oxo-N-3-pyridazinyl-1,5,7,8-tetrahydro-1,6-naphthyridine-6(2H)-sulfonamide] was > 10000 nM; that for `COc1cc(-c2cc(F)cc(Cl)c2)ccc1-n1c2c(ccc1=O)CN(S(=O)(=O)Nc1ccon1)CC2` (single isomer, unassigned) [Example 7-M, M-1-(3′-chloro-5′-fluoro-3-methoxy-4-biphenylyl)-N-3-isoxazolyl-2-oxo-1,5,7,8-tetrahydro-1,6-naphthyridine-6(2H)-sulfonamide] was 1210 nM; that for `COc1cc(-c2cc(F)cc(Cl)c2)c(F)cc1-n1c2c(ccc1=O)CN(S(=O)(=O)Nc1cc(C)ncn1)CC2` (single isomer, unassigned) [Example 4-M, M-1-(3′-chloro-2,5′-difluoro-5-methoxy-4-biphenylyl)-N-(6-methyl-4-pyrimidinyl)-2-oxo-1,5,7,8-tetrahydro-1,6-naphthyridine-6(2H)-sulfonamide] was 8300 nM.
The same measure, in the same setting: the same measure for `COc1cc(Br)c(F)cc1-n1c2c(ccc1=O)CN(S(=O)(=O)Nc1ccncn1)CC2` (single isomer, unassigned) [Preparation 8f-M, M-1-(4-bromo-5-fluoro-2-methoxyphenyl)-2-oxo-N-(pyrimidin-4-yl)-1,2,7,8-tetrahydro-1,6-naphthyridine-6(5H)-sulfonamide]: > 25000 nM.

By IC50 is commonly meant the concentration at which inhibition is half-maximal.

For the origin of these results see patent US10472356B2, “Bicyclic ketone sulfonamide compounds” (AMGEN INC., priority 2015, dated 2019).
